Assay results as given in patent EP1078629A2 (GLAXO GROUP LIMITED, priority 1989, dated 1991).

What was measured:
[1] = tested on: histamine-induced PPE; test: Histamine-induced plasma protein extravasation in the lung; format: in vivo, guinea-pigs
Excerpt: Briefly, guinea-pigs (male Dunkin Hartley, 300-400g) were given an intracardiac injection of iodinated human serum albumin (0.5µCi) in heparinised saline (10U.ml^-1).

[2] = tested on: Zymosan-induced Granylocyte-dependent PPE; test: Zymosan-induced granulocyte-dependent plasma protein extravasation in skin; format: in vivo, guinea-pig; set-up: Zymosan-induced Granylocyte-dependent PPE: unit not given here
Experimental: (§1) The effect of β2-adrenoreceptor agonists on granulocyte-dependent and independent vascular permeability induced in guinea-pig skin, by intradermal challenge with zymosan and histamine respectively, was evaluated using a modification of the method of Issekutz Lab. Invest .,45 , 435-441(1981).
(§2) Plasma protein extravasation (PPE) was calculated as µl plasma equivalents.

[3] = tested on: Histamine-induced Granulocyte Independent PPE; test: Histamine-induced granulocyte-independent plasma protein extravasation in skin; format: in vivo, guinea-pig
Experimental: as §1, §2

[4] = tested on: zymosan-induced PMN cell accumulation in guinea-pig skin; test: Zymosan-induced PMN cell accumulation in skin; conditions: for % Inhibition of PMN cell accumulation: together with zymosan 0.2mg.site^-1
[5] = tested on: LPS-induced neutrophil accumulation; test: LPS-induced neutrophil accumulation in bronchoalveolar lavage fluid; format: in vivo, guinea-pigs; conditions: 0.1 mg.ml^-1 aerosol 30 min prior to LPS 100µg.ml^-1; 4 hours after challenge (LPS alone 141.3 ± 33.3, baseline 3.8 ± 1.2)
Experimental: (§3) Briefly, guinea-pigs (male Dunkin Hartley, 300-400g) were exposed to an aerosol of 100µg.ml^-1 E. coli lipopolysaccharide (LPS;026:B6, Sigma Ltd) or 100µg.ml^-1 platelet activating factor (PAF; Sigma Ltd.) for 10 min. […] The total leukocyte count of the bronchoalveolar lavage fluid (BALF) recovered was determined. A cytospin preparation was prepared from the BALF, fixed with methanol, stained with Wright's stain and a differential leukocyte count was carried out.

[6] = tested on: PAF-induced eosinophil infiltration; test: PAF-induced eosinophil infiltration in bronchoalveolar lavage fluid; format: in vivo, guinea-pigs; conditions: inhalation 0.1mg.ml^-1 30 min prior to PAF 100µg.ml^-1; 24 hours after challenge (PAF alone 97.7 ± 18.8, baseline 53.3 ± 12.5)
Experimental: as §3

[7] = Cavia porcellus, PMN, po, read-out: % Inhibition of PMN cell accumulation

| SMILES | ED50 ([1]; Cavia porcellus, po, 0.5 h, p.o., 30 min prior to histamine, read-out: ED50, inhibition of histamine-induced PPE) | time after which there is substantial loss of activity against histamine induced PPE ([1]; equi-effective doses) | inhibitory effect on zymosan-induced PPE ([2]; 10-100mg.kg^-1 p.o.) | dose required for a comparable effect on granulocyte-independent PPE, relative to salmeterol ([3]; compared with salmeterol 10mg.kg^-1 p.o.) | inhibitory effect on PMN cell accumulation ([4]; 10-100mg.kg^-1 p.o.) | BALF neutrophil count [5] | BALF eosinophil count [6] | inhibition of histamine-induced PPE at the highest doses ([1]; aerosol, nebuliser concentration 0.001-1mg.ml^-1) | Zymosan-induced Granylocyte-dependent PPE ([2]; Intradermal 10^-8 (nmol.site^-1), co-administered with zymosan) | Zymosan-induced Granylocyte-dependent PPE ([2]; Intradermal 10^-9 (nmol.site^-1), co-administered with zymosan) | Zymosan-induced Granylocyte-dependent PPE ([2]; Oral 1.0 mg.kg^-1, 1 hour before zymosan 0.2mg.site^-1) | Zymosan-induced Granylocyte-dependent PPE ([2]; Oral 10.0 mg.kg^-1, 1 hour before zymosan 0.2mg.site^-1) | Histamine-induced Granulocyte Independent PPE ([3]; Oral 1.0 mg.kg^-1, 1 hour before histamine 100ng.site^-1) | Histamine-induced Granulocyte Independent PPE ([3]; Oral 10.0 mg.kg^-1, 1 hour before histamine 100ng.site^-1) | inhibition at 1 mg/kg [4, 7] | inhibition at 10 mg/kg [4, 7] | % Inhibition of PMN cell accumulation ([4]; Intradermal 10^-8 (nmol.site^-1)) | % Inhibition of PMN cell accumulation ([4]; Intradermal 10^-9 (nmol.site^-1)) |
| --- | --- | --- | --- | --- | --- | --- | --- | --- | --- | --- | --- | --- | --- | --- | --- | --- | --- | --- |
| CC(C)(C)NCC(O)c1ccc(O)c(CO)c1 (stereo not drawn) [salbutamol, reference compound] | 0.02 mg/kg | 2 h | no inhibitory effect | Approximately 10 fold | no significant inhibitory effect |  |  |  |  |  |  |  |  |  |  |  |  |  |
| OCc1cc(C(O)CNCCCCCCOCCCCc2ccccc2)ccc1O (stereo not drawn) [salmeterol, 4-hydroxy-α^1-[[[6-(4-phenylbutoxy)hexyl]amino]methyl]-1,3-benzenedimethanol] |  |  |  |  |  | 46.8 ± 9.1 x10^3 cells.ml^-1 | 59.2 ± 19.8 x10^3 cells.ml^-1 | complete inhibition | 51.7 | 1.8 | 47.0 | 56.0 | 9.2 | 58.5 | 27% | 59% | 51% | 16% |
